Patent US9266834B2, “1, 4-disubstituted 3-cyano-pyridone derivatives and their use as positive allosteric modulators of MGLUR2-receptors” (JANSSEN PHARMACEUTICALS, INC., priority 2006, dated 2016)

Experiments:
human mGluR2 receptor = biological target: T1, human mGluR2 receptor (Homo sapiens, UniProt Q14416); assay: [35S]GTPγS binding assay (GTPγS-PAM): positive allosteric modulation in presence of glutamate at EC25, membranes from transfected CHO cells; type: biochemical; conditions: in presence of mGluR2 agonist glutamate at predetermined EC25 concentration, averages of duplicate values of 11-concentration response curves; for EC50: read-out: GTPgS - hR2 PAM pEC50 (converted)
T1 construct: expressed in transfected cells; host or cells: CHO cells (membrane preparation)
Procedure, shortened: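 Potentiation was read as filter-retained [35S]GTPγS (0.1 nM final, 30 min, 30° C.) after a 30 min, 30° C. preincubation of human mGluR2 CHO membranes (15 μg/well) with EC25 glutamate and 11 modulator concentrations spanning 0.3 nM-50 μM. The buffer was 50 mM HEPES pH 7.4, NaCl, MgCl2, 50 μM GDP and saponin. Cold 10 μM GTP defined nonspecific binding; data were fitted by a four-parameter logistic.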

T1 sequence (Q14416 19-872): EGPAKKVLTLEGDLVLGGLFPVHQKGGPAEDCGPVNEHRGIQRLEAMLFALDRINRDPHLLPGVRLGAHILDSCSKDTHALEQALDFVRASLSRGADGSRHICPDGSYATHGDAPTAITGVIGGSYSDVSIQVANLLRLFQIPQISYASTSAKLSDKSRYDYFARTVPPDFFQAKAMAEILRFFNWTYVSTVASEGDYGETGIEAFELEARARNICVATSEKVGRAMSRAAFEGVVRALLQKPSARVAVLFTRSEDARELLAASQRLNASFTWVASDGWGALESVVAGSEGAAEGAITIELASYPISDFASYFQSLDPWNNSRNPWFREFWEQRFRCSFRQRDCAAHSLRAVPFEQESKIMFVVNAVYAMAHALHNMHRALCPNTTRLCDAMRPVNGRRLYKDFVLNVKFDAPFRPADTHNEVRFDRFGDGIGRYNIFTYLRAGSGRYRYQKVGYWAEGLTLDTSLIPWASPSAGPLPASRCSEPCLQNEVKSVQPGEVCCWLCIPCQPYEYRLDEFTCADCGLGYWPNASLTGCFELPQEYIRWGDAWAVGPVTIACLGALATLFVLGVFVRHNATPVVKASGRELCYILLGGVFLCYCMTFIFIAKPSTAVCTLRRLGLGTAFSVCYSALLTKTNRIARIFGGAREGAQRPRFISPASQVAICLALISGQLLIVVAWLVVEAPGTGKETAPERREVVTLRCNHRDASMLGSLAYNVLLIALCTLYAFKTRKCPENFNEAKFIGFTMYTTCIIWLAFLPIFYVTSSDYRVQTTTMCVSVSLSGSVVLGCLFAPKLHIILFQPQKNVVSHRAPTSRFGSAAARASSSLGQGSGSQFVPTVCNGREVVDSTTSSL

Row | EC50 (human mGluR2 receptor) | melting point | GTPgS - hR2 PAM pEC50 (human mGluR2 receptor) | Compound
1 | 3160 nM | 183 °C |  | CCCCn1ccc(N2CCN(Cc3cc(F)cc(C(F)(F)F)c3)CC2)c(C#N)c1=O [2-001]
2 | 158 nM | 117 °C |  | CC(C)CCn1ccc(OCC2CCN(Cc3cccc(C(F)(F)F)c3)CC2)c(C#N)c1=O [3-009]
3 | 3160 nM | 188 °C |  | CCCCn1ccc(N2CCC(Oc3cccnc3)CC2)c(C#N)c1=O [4-004]
4 | 25.1 nM | 232 °C |  | CC(C)CCn1ccc(-c2ccc3c(ccn3Cc3ccncc3)c2)c(C#N)c1=O [5-020]
5 | 1000 nM | 242 °C |  | CN(Cc1cccc(F)c1)C1CCN(c2ccn(Cc3ccc(F)cc3)c(=O)c2C#N)CC1 [4-057]
6 | 3160 nM | 239 °C |  | N#Cc1c(N2CCN(Cc3ccc(F)c(F)c3)CC2)ccn(Cc2ccc(F)cc2)c1=O [2-051]
7 | 398 nM | 296 °C |  | CC(C)CCn1ccc(N2CCC(C(=O)c3ccccc3)CC2)c(C#N)c1=O [4-012]

The next lines start with the compound.

Row | Compound | EC50 (human mGluR2 receptor) | melting point | GTPgS - hR2 PAM pEC50 (human mGluR2 receptor)
8 | CCOC(=O)c1ccc(-c2cccc(COc3ccn(CCC(C)C)c(=O)c3C#N)c2)cc1 [1-290] | 158 nM | 148 °C | 
9 | COc1ccc(CNc2ccc(-c3ccn(CCC(C)C)c(=O)c3C#N)cc2)cc1 [1-203] | 316 nM | 173 °C | 
10 | CCCC(C)n1ccc(-c2cccs2)c(C#N)c1=O (centres unmarked) [1-079] | 5010 nM | 103 °C | 
11 | COc1cccc(-c2ccn(CCC(C)C)c(=O)c2C#N)c1 [1-101] |  | 96 °C | 5.5
12 | N#Cc1c(-c2ccc(Oc3ccccc3)cc2)ccn(Cc2ccc(OC(F)(F)F)cc2)c1=O [1-041] | 251 nM | 155 °C | 
13 | COc1ccc(-c2ccn(CCC(C)C)c(=O)c2C#N)cc1OC [1-110, 4-(3,4-dimethoxyphenyl)-3-cyano-1-(3-methylbutyl)pyridine-2(1H)-one] | 2510 nM | 52 °C | 
14 | CC(C)CCn1ccc(N(C)C2CCN(Cc3cccc(C(F)(F)F)c3)CC2)c(C#N)c1=O [3-006] | 2510 nM | 131 °C | 
15 | CC(C)CCn1ccc(-c2ccc(NCc3ccncc3)cc2)c(C#N)c1=O [1-210] | 1000 nM | 73 °C | 
16 | CC(C)CCn1ccc(-c2ccc(N3CCOCC3)c(Br)c2)c(C#N)c1=O [1-226] | 126 nM | 118 °C | 
17 | CC(C)CCn1ccc(-c2ccc(NCc3ccc(F)cc3)cc2)c(C#N)c1=O [1-200] | 79.4 nM | 162 °C | 
18 | CC(C)CCn1ccc(OCc2ccc(CN3CCOCC3)cc2)c(C#N)c1=O [1-292] | 1260 nM | 154 °C | 
19 | CC(C)CCn1ccc(-c2ccc(C(=O)N(C)Cc3ccccc3)cc2)c(C#N)c1=O [1-245] | 794 nM | 135 to 140 °C | 
20 | CN(c1ccn(Cc2ccc(OC(F)(F)F)cc2)c(=O)c1C#N)C1CCN(Cc2ccccc2)CC1 [3-013] | 3980 nM | 211 °C | 
21 | CC(C)CCn1ccc(OCc2ccccc2)c(C#N)c1=O [1-275] | 1260 nM | 174 °C | 
22 | CC(C)CCn1ccc(-c2ccc(OCc3cccnc3)cc2)c(C#N)c1=O [1-158] | 501 nM | 142 °C | 
23 | COc1ccc(-c2ccn(CCC(C)C)c(=O)c2C#N)cc1Cl [1-112] | 316 nM | 149 °C | 
24 | CC(C)CCn1ccc(-c2cccc(O)c2)c(C#N)c1=O [1-096] | 1580 nM | 201 °C | 
25 | COc1ccc(COc2ccc(-c3ccn(CCC(C)C)c(=O)c3C#N)cc2)cc1 [1-145] | 39.8 nM | 212 °C | 
26 | CC(C)CCn1ccc(-c2ccc(OC(C)C)c(Cl)c2)c(C#N)c1=O [1-117] | 63.1 nM | 166 °C | 
27 | CC(C)CCn1ccc(-c2ccc(Oc3cccnc3)cc2)c(C#N)c1=O [1-155] | 501 nM | 132 °C | 
28 | CC(=O)c1ccc(-c2ccn(CCC(C)C)c(=O)c2C#N)cc1 [1-238] | 3160 nM | 130 °C | 
